{"source": "patent US20040253576A1", "about": "(priority 2003, published 2004)", "key": {"[1]": {"tested_on": "MSNs from the NAcb shell", "type": "cell-based, Sprague-Dawley rats", "conditions": "for effect on increase in spike firing elicited by D1/D2 co-activation: dialysis of neurons; for effect on activation of spike firing by forskolin: peptide in intracellular solution; for effect on DA-mediated changes in spike firing / effect on spike firing, intracellular perfusion alone: 1 μM, intracellular perfusion"}, "[2]": {"tested_on": "total potassium currents, comprised of IAs, delayed-rectifier, and non-inactivating potassium currents", "assay": "voltage-clamp measurement of total evoked potassium current", "type": "cell-based, Sprague-Dawley rats"}, "[3]": {"tested_on": "MSNs from the NAcb shell", "protocol": "Patch-clamping was performed using visualized infrared-DIC with 2.5 to 3.5 MΩ electrodes. Current pulses were applied using Clampex 8.0 and an Axo-1D patch amplifier in current-clamp mode (Axon Instruments, Foster City, Calif.). Upon breaking into neurons, the resting membrane potentials were between −95 and −80 mV. […] Series resistance correction was 15-20 MΩ. To record EPSPs, a bipolar stimulating electrode was placed ˜100 μM lateral to the recording electrode. Afferents were stimulated with 10 pulses at 20 Hz (20 μs) every 30 seconds using a Master 8 (AMPI, Jerusalem, Israel), and EPSPs were recorded using Clampex in current-clamp mode.\nWe also performed a within-cell comparison of the spike firing change and the change in input resistance or Vm-rest."}}, "note": "“Also recorded” adds a separate entry of the source. Where two headings read alike, the source gives them in different places.", "data": [{"molecule": "CCCN1CCC[C@@H]2Cc3n[nH]cc3C[C@H]21", "note": "[quinpirole]", "values": [{"measurement": "effect on spike firing in cells perfused with Gβγ", "setting": "[1]", "result": "not"}, {"measurement": "effect on spike firing, agonist alone", "setting": "[1]", "result": "not altered"}, {"measurement": "effect on spike rate, agonist alone", "setting": "[1]", "result": "no effect"}]}, {"molecule": "DALRIQMEERFMASNPSKVSYEPIT [SPβγ]", "values": [{"measurement": "effect on increase in spike firing elicited by D1/D2 co-activation", "setting": "[1]; 200 μM", "result": "prevented"}, {"measurement": "effect on activation of spike firing by forskolin", "setting": "[1]", "result": "not prevented"}]}, {"molecule": "Norokadaone", "values": [{"measurement": "effect on DA-mediated changes in spike firing", "setting": "[1]", "result": "did not prevent the effects of DA"}, {"measurement": "effect on spike firing, intracellular perfusion alone", "setting": "[1]", "result": "had no effect by itself"}]}, {"molecule": "CC(N)Cc1ccccc1", "note": "(stereo not shown) [amphetamine]", "values": [{"measurement": "change in spike firing", "setting": "[1]; 10 μM, bath application", "result": "18.5+/−5.4%"}]}, {"molecule": "Nc1ccncc1", "note": "[4-AP, 4-aminopyridine]", "values": [{"measurement": "effect on potassium current evoked by a 300 ms pulse to 0 mV", "setting": "[2]; 10 μM", "result": "small but significant inhibition"}, {"measurement": "effect on DA-mediated enhancement of spike firing (occlusion)", "setting": "[1]; 60 μM pre-exposure", "result": "significantly occluded the effects of DA"}, {"measurement": "effect on spike firing", "setting": "[1]; 5-60 μM", "result": "increased spike firing in a dose-dependent manner; also recorded: significantly enhanced spike firing"}, {"measurement": "change in spike firing with DA after pre-exposure to IAs inhibitor", "setting": "[1]; inhibitor 10 μM", "result": "11.4+/−5.1%"}]}, {"molecule": "NCCc1ccc(O)c(O)c1", "note": "[DA, Dopamine]", "values": [{"measurement": "effect on potassium current evoked by a 300 ms pulse to 0 mV", "setting": "[2]; 75 μM", "result": "small but significant inhibition"}, {"measurement": "effect on spike firing", "setting": "[1]", "result": "significantly and reversibly elevated spike firing"}, {"measurement": "enhancement in spike firing by DA with calcium channels blocked", "setting": "[1]; pre-incubation with ω-conotoxin GVIA 500 nM and ω-agatoxin IVA 250 nM, continuous nifedipine 30 μM", "result": "24.0+/−5.0%"}, {"measurement": "effect on input resistance (R-input)", "setting": "[3]", "result": "no significant changes"}, {"measurement": "effect on resting membrane potential (Vm-rest)", "setting": "[3]", "result": "no significant changes"}]}, {"molecule": "CN1CCc2cc(Cl)c(O)cc2[C@@H](c2ccccc2)C1", "note": "[SCH 23990]", "values": [{"measurement": "change in spike firing with DA after pre-exposure to antagonist", "setting": "[1]; antagonist 1 μM, pre-exposure", "result": "−0.5+/−4.6%"}]}, {"molecule": "C=C[C@@]1(C)CC(=O)[C@@H]2[C@@]3(C)CCCC(C)(C)[C@@H]3[C@H](O)[C@H](OC(C)=O)[C@@]2(C)O1", "note": "[dideoxy-forskolin]", "values": [{"measurement": "effect on spike firing", "setting": "[1]; 5 μM", "result": "had no effect"}]}, {"molecule": "N[C@@H](CCC(=O)O)C(=O)O", "note": "[glutamate]", "values": [{"measurement": "effect on spike rate after exposure to 60 μM 4-AP", "setting": "[1]; 200 μM, after 60 μM 4-AP", "result": "further increased spike rate"}]}, {"molecule": "YEDSYEDISAYLLSKNNAIPR [FVIII]", "values": [{"measurement": "effect on increase in spike firing elicited by D1/D2 co-activation", "setting": "[1]; 200 μM", "result": "had no effect"}, {"measurement": "effect on activation of spike firing by forskolin", "setting": "[1]", "result": "not prevented"}]}, {"molecule": "Oc1cc2c(c(Cl)c1O)CCNCC2c1ccccc1", "note": "(stereo not shown) [SKF 81297]", "values": [{"measurement": "effect on spike firing in cells perfused with Gβγ", "setting": "[1]; 10 μM, intracellular Gβγ subunits 20 nM", "result": "significantly enhanced spike firing"}, {"measurement": "effect on spike firing, agonist alone", "setting": "[1]; 1-10 μM, alone", "result": "not altered"}, {"measurement": "change in spike firing in neurons perfused with Gβγ vehicle plus maltose binding protein", "setting": "[1]; control perfusion without Gβγ", "result": "−2.5+/−2.5%"}]}, {"molecule": "C=C1[C@@H](O)[C@@H]2O[C@]3(CC[C@H](/C=C/[C@@H](C)[C@@H]4CC(C)=C[C@@]5(O[C@H](C[C@@](C)(O)C(=O)O)CC[C@H]5O)O4)O3)CC[C@H]2O[C@@H]1[C@@H](O)C[C@H](C)[C@H]1O[C@@]2(CCCCO2)CC[C@H]1C", "note": "[okadaic acid]", "values": [{"measurement": "effect on DA-mediated changes in spike firing", "setting": "[1]", "result": "occluded"}, {"measurement": "effect on spike firing, intracellular perfusion alone", "setting": "[1]", "result": "significantly enhanced"}, {"measurement": "firing change with okadaic acid in the presence of 4-AP", "setting": "[1]; ˜13 minutes pre-exposure to 60 μM 4-AP", "result": "16+/−4.3%"}]}, {"molecule": "CCc1cc(Cl)c(OC)c(C(=O)NC[C@@H]2CCCN2CC)c1O", "note": "[eticlopride]", "values": [{"measurement": "change in spike firing with DA after pre-exposure to antagonist", "setting": "[1]; antagonist 300 nM, pre-exposure", "result": "2.5+/−5.5%"}, {"measurement": "effect on DA-mediated enhancement of spike firing", "setting": "[1]; antagonist 3 μM, pre-exposure", "result": "prevented"}]}, {"molecule": "CCCN1CCc2cccc3c2[C@H]1Cc1ccc(O)c(O)c1-3", "note": "[NPA, propylnorapomorphine]", "values": [{"measurement": "effect on spike firing, agonist alone", "setting": "[1]; 3 μM, alone", "result": "not altered"}]}, {"molecule": "α-dendrotoxin (QPRRKLCILHRNPGRCYDKIPAFYYNQKKKQCERFDWSGCGGNSNRFKTIEECRRTCIG; UniProt P00980 1-59, looked up) [α-dtx]", "values": [{"measurement": "effect on spike firing", "setting": "[1]; 0.5 μM", "result": "significantly enhanced spike firing"}, {"measurement": "effect on DA-mediated enhancement of spike firing (occlusion)", "setting": "[1]; 0.5 μM pre-exposure", "result": "significantly occluded the effects of DA"}]}, {"molecule": "Nc1ncnc2c1ncn2[C@@H]1O[C@@H]2CO[P@@](O)(=S)O[C@H]2[C@H]1O", "note": "[Rp-cAMPS]", "values": [{"measurement": "effect on spike firing when added during the DA response", "setting": "[1]; 100 μM, during plateau DA response", "result": "significantly reduced spike firing to pre-DA levels"}]}]}
